Measured values as given in patent US4649150A, “Antiulcerogenic amidine derivatives of 2-substituted 4-phenylimidazole” (Istituto de Angeli, S.p.A., priority 1983, dated 1987).
pEC50: −log10 of the molar value. Read-outs that look alike come from different tables or passages of the source.

Assays:
histamine H2 -receptors = target: T1, histamine H2 -receptors (Cavia porcellus, UniProt P47747); assay: In vitro inhibitory activity in histamine-induced tachycardia (guinea pig atria); inhibition of the histamine-evoked positive chronotropic effect; conditions: isolated guinea pig atria, Krebs-Henseleit pH 7.4, 32° C., histamine 10^-6 g.ml^-1, 30 minutes; read-out: EC50 (average effective concentration of the H2-antagonists, inhibition of histamine-induced tachycardia)
T1 construct: isolated guinea pig atria suspended in an organ bath; from tissue; host or cells: isolated guinea pig atria
T1 sequence (P47747 whole entry): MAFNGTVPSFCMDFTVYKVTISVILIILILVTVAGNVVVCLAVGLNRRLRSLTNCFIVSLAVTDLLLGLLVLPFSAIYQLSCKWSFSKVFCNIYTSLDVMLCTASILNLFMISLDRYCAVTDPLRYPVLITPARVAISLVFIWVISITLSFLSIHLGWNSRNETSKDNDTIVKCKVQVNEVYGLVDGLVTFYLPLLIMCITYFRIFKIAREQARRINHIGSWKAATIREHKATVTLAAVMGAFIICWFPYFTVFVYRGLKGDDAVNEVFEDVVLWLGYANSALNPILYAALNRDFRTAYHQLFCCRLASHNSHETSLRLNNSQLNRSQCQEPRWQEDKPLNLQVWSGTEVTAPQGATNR
Protocol: The myocardial preparation, loaded with 1 g isometric tension, was allowed to stabilize for 60 minutes, and myocardial contractions were recorded through an isometric lever connected to a strain-gauge coupler, and the instantaneous rate was monitored with a cardiotachometer and a heat-writing pen recorder. After two control responses to histamine (10^-6 g.ml^-1) the test compounds were added to the bath at the desired final concentration and left for 30 minutes before the atria were again challenged with histamine. The chronotropic response obtained in the presence of the antagonist was then compared to the control response to histamine, and the percent reduction of the histamine H2 -evoked response was calculated. […] 3, Smooth muscle, Ed. Daniel E. E. Paton, M., Plenum Press. New York (1975); Ash and Schild, Br. J. Pharmacol. Chemother. 27, 427-439, 1966.

[1] = test system: histamine-induced gastric secretion of acid; assay: In vivo antisecretory activity in histamine-induced gastric secretion (stomach perfused rat); conditions: iv, read-out: ED50 (histamine-induced gastric secretion)
Description: The ability of the test compounds to inhibit histamine-induced gastric secretion of acid was investigated after intravenous or intraduodenal administration in stomach perfused rats, according to Gosh and Schild [Br. J. Pharmacol. Chemother. 13, 54 (1958)]. The preparation of the animals in general anesthesia (urethane 1 g.kg^-1 i.p.) and constant temperature was achieved by inserting and tying in place polyethyl tubes (PE 50) in the esophagus and in the pyloric-antral region. After the stomach was washed to remove residuals of food, continuous perfusion of the stomach was started with saline, 0.5 ml.min^-1 (37° C.), primed by a Jobling peristaltic pump. After 30 minutes of perfusion adaptation, samples of the stomach perfusate were collected at 30 min. intervals and titrated for acid content, expressed as μEq of 1N NaOH. As control acid output became constant, intravenous perfusion of histamine (1 mg.kg^-1hr^-1) was started and maintained throughout the experimental period. After the acid secretion had reached the steadily higher level, increasing doses of the test compound were injected intravenously in order to obtain dose-response functions. The ED50 was then calculated by standard procedure.

[2] = stomach perfused rat, urethane anesthesia, histamine 1 mg.kg^-1hr^-1 i.v., values expressed taking the compound as a base

Row | Structure (SMILES) | pEC50 (histamine H2 -receptors) | ED50 [1, 2] [mg/kg] | ED50 ([1]; Rattus norvegicus) [mg/kg]
1 | CCNC=Nc1ccc(-c2c[nH]c(C)n2)cc1 [16 (a), N-Ethyl-N'-[4-(2-methyl-imidazol-4-yl)phenyl]-formamidine] | 6.82 | 0.032 | 
2 | CC(C)NC=Nc1ccc(-c2c[nH]c(O)n2)cc1 [16 (aa), N-Isopropyl-N'-[4-(2-hydroxy-imidazol-4-yl)phenyl]-formamidine] | 6.71 | 0.065 | 
3 | Cc1nc(-c2ccc(N=CNC(C)C)cc2)c[nH]1 [16 (b), N-Isopropyl-N'-[4-(2-methyl-imidazol-4-yl)phenyl]-formamidine] | 6.74 | 0.067 | 
4 | C=CCNC=Nc1ccc(-c2c[nH]c(C)n2)cc1 [16 (c), N-Allyl-N'-[4-(2-methyl-imidazol-4-yl)phenyl]-formamidine] | 6.92 | 0.025 | 
5 | CN/C(=N/CCSCc1nc[nH]c1C)NC#N [Cimetidine, reference compound] |  |  | 0.56
6 | Cc1nc(-c2ccc(N=CNC(C)(C)C)cc2)c[nH]1 [Example 17, N-tert.Butyl-N'-[4-(2-methyl-imidazol-4-yl)phenyl]-formamidine] | 6.40 | 0.08 | 
